Key:
PGC-1α = test: Western blot PGC-1α in MPP^+-treated BE(2)-M17 cells; assay type: cell-based, human; conditions: BE(2)-M17, compound 10 μM + 0.62 mM MPP^+; MPP^+ alone 75%; untreated = 100%
Method: (§1) HMC3 (2 × 10^5/6-well) or BE(2)-M17 (4 × 10^5/6-well) cells were lysed in buffer (composition: 50 mM Tris-HCl pH8.0, 2 mM EDTA pH8.0, 150 mM NaCl, 0.5% sodium deoxycholate, 0.1% SDS, 50 mM NaF, 1% NP40) containing the protease and/or phosphatase inhibitor cocktail (Sigma-Aldrich). After sonication, the lysates were centrifuged (12,000 × g for 10 min at 4°C) and protein concentrations determined (Bradford protein assay; Bio-Rad, Hercules, CA, USA). Aliquots of protein (20 μg) were separated by electrophoresis using 10%−12% SDS–polyacrylamide gel followed by transfer to a polyvinylidene fluoride (PVDF) membrane. After being blocked, the PVDF membrane was stained with NLRP3 (#15101s), caspase-1 (CASP1; #3866s), iNOS (#20609), IL-1β (#12242), CREB (#9192), BCL2-associated X (BAX; #2772; 1:1,000; Cell Signaling), IL-6 (#ab6672), TNF-α (#ab9739), GCLC (#ab41463), BDNF (#ab108319; 1:1,000; Abcam, Cambridge, UK), NLRP1 (#NBP-1-54899; 1:500; Novus Biologicals, Centennial, CO, USA), NRF2 (#ABE413), NQO1 (#N5288), p-CREB (Ser133; #06-519; 1:1,000; Sigma-Aldrich), PGC-1α (#GTX37356; 1:1,000; GeneTex, Irvine, CA, USA), B-cell lymphoma 2 (BCL2; #IR94-392; 1:1,000; iReal Biotechnology, New Taipei City, Taiwan), or glyceraldehyde-3-phosphate dehydrogenase (GAPDH; #30000002; 1:1,000; MDBio, Taipei, Taiwan) primary antibody at room temperature 2 h or 4°C overnight. The immune complexes were detected using horseradish peroxidase (HRP)-conjugated goat anti-mouse or goat anti-rabbit IgG antibody (1:5,000; GeneTex) and chemiluminescent HRP substrate (Millipore, Burlington, MA, USA). Immunoreactive bands were captured (ImageQuant™ LAS 4000, GE Healthcare, Chicago, IL, USA) and quantified (Multi Gauge V3.0 software, Fujifilm, Tokyo, Japan).

GCLC = test: Western blot GCLC in MPP^+-treated BE(2)-M17 cells; assay type: cell-based, human; conditions: BE(2)-M17, compound 10 μM + 0.62 mM MPP^+; MPP^+ alone 86%; untreated = 100%
Method: as §1

caspase-3 = caspase-3 activity assay in MPP^+-treated BE(2)-M17 cells; assay type: cell-based, human
Method: BE(2)-M17 cells were plated onto six-well (4 × 10^5/well) and treated with retinoic acid, LM compounds (10 μM), and MPP^+ as described. Cells were collected on day 7 and lysed by six freeze/thaw cycles. Types of substrates applied were: Ac-Tyr-Val-Ala-Asp-7-amino-4-trifluoromethyl coumarin (YVAD-AFC) for caspase-1, Ac-Val-Glu-Ile-Asp-7-amino-4-trifluoromethyl coumarin (VEID-AFC) for caspase-6 (BioVision, Milpitas, CA, USA), and Ac-Asp-Glu-Val-Asp-7-amido-4-methylcoumarin (DEVD-AMC) for caspase-3 (Sigma-Aldrich). The reaction mixtures were incubated for 1.5 h at 37°C per the manufacturer's instructions. The fluorescence intensity at 400 nm excitation and 505 nm emission (caspase-1 and caspase-6) or 360 nm excitation and 460 nm emission (caspase-3) wavelengths were recorded (BioTek FLx800).

[1] = oxygen radical antioxidant capacity (OxiSelect kit); conditions: at 4–100 μM concentration
Method: The test of oxygen radical antioxidant capacity (Ou et al., [2001]) was performed using OxiSelect™ kit (Cell Biolabs, San Diego, CA, USA). Briefly, trolox standards (2.5–50 μM) and LM compounds (4–100 μM) were prepared using a serial dilution in a mixture containing 50% acetone and 50% water. After adding fluorescein to blank (50% acetone/50% water), standards, or samples, the mixture was mixed and incubated at 37°C for 30 min. Subsequently, free radical initiator 2,2′-azobis(2-methylpropionamidine) dihydrochloride (AAPH) was added to generate peroxyl radicals (ROO•). The quenching of fluorescent probe over time was recorded at 480 nm excitation and 520 nm emission for 60 min (Bio-Tek FLx800). To quantify the oxygen radical absorbance capacity, the area under the curve (AUC) for blank, standard and samples were calculated. After subtraction of the blank, trolox equivalent (μM) of samples were determined using a calibration curve with trolox standards.

BE(2)-M17 cells = test: high-content analysis of neurite outgrowth in MPP^+-treated BE(2)-M17 cells; assay type: cell-based, human; conditions: for neurite length: MPP^+ alone 24.2 μm
Method: For automated neuronal morphology analysis, BE(2)-M17 cells were seeded in 24-well plate (5 × 10^4/well) and treated with retinoic acid, LM compounds (10 μM), and MPP^+ as described. On day 7, after being fixed and permeated, cells were stained with TUBB3 (neuronal class III β-tubulin) antibody (#802001; 1:1,000; BioLegend, San Diago, CA, USA) at 4°C overnight, followed by Alexa Fluor 555-donkey anti-rabbit (#A-31572) antibody (1:1,000; Thermo Fisher Scientific) at room temperature for 2 h. TUBB3 is a β-tubulin isoform constitutively expressed in neurons and important for maintaining further neurite elongation (Ferreira and Caceres, [1992]). After nuclei staining with DAPI, neuronal images were captured at 531 nm excitation and 593 nm emission wavelengths (ImageXpress Micro Confocal; Molecular Devices). Microscopic images were segmented with multi-colored mask to assign each outgrowth to a cell body for quantification of neurite outgrowth. Neurite total length (μm) and numbers of primary neurites originated from neuronal cell body (process) and secondary neurites extended from primary neurites (branch) were analyzed (Neurite Outgrowth Application Module; Molecular Devices). For each sample, around 3,000 cells were analyzed in each of three independent experiments.

[2] = BE(2)-M17, compound 10 μM + 0.62 mM MPP^+, MPP^+-untreated = 100%
[3] = BE(2)-M17, compound 10 μM + 0.62 mM MPP^+, MPP^+ alone 2.6
[4] = BE(2)-M17, compound 10 μM + 0.62 mM MPP^+

SMILES: Cc1ccc(/C=C/C(=O)c2c(O)c3ccccc3oc2=O)cc1 [LM-016]
- PGC-1α level (PGC-1α): 98–109%
- GCLC level (GCLC): 99–106%
- caspase-3 activity (caspase-3; [2]): 102%
- oxygen radical antioxidant capacity, trolox equivalent [1]: 0 to 10 µM

SMILES: CN(C)c1ccc(/C=C/C(=O)c2c(O)c3ccccc3oc2=O)cc1 [LM-021, (E)-3-(3-(4-(dimethylamino)phenyl)acryloyl)-4-hydroxy-2H-chromen-2-one]
- PGC-1α level (PGC-1α): 98–109%
- number of process (BE(2)-M17 cells; [3]): 2.8–3.0
- neurite length (BE(2)-M17 cells; [4]): 26.2–27.2 μm
- GCLC level (GCLC): 99–106%
- caspase-3 activity (caspase-3; [2]): 101%
- oxygen radical antioxidant capacity, trolox equivalent [1]: 2 to 36 µM

SMILES: O=C(/C=C/c1ccccc1O)c1c(O)c2ccccc2oc1=O [LM-036]
- PGC-1α level (PGC-1α): 98–109%
- number of process (BE(2)-M17 cells; [3]): 2.8–3.0
- neurite length (BE(2)-M17 cells; [4]): 26.2–27.2 μm
- GCLC level (GCLC): 99–106%
- caspase-3 activity (caspase-3; [2]): 101%
- oxygen radical antioxidant capacity, trolox equivalent [1]: 15 to 40 µM

SMILES: C[n+]1ccc(-c2ccccc2)cc1 [MPP^+, 1-methyl-4-phenyl pyridinium, reference compound]
- number of branch (BE(2)-M17 cells; BE(2)-M17, 0.62 mM MPP^+ alone, untreated 1.2, not significant): 1.1
- number of process (BE(2)-M17 cells; BE(2)-M17, 0.62 mM MPP^+ alone, untreated 2.9): 2.6
- total length of neurite (BE(2)-M17 cells; BE(2)-M17, 0.62 mM MPP^+ alone, untreated 26.0 μm): 24.2 μm
- caspase-3 activity (caspase-3; BE(2)-M17, 0.62 mM MPP^+ alone, untreated = 100%): 114%
